How the values were obtained:
Test in all cases: graphene oxide fluorescence assay
Details in all cases: 100 mM NaCl, 5 mM KCl, 2 mM MgCl2, 1 mM CaCl2; 20 mM Tris-HCl pH 7.5, room temperature; aptamer 0-400 nM titrated at fixed 1 µg/mL SQX
[1] = test system: SBA28-1 (DNA, aptamer) CCCTAGGGG
[2] = test system: SBA40-1 (DNA, aptamer) GGCTGACTGCT
[3] = test system: SBA24-1 (DNA, aptamer) GCGTGAGC

Kd [1]: 27.36 nM | Kd [2]: 36.73 nM | Kd [3]: 74.19 nM
SMILES: Nc1ccc(S(=O)(=O)Nc2cnc3ccccc3n2)cc1
